From US7449571B2, “Halogenated aminoquinolines and oligonucleotides containing the same” (Board of Regents of the University of Nebraska, priority 2005, dated 2008)
Read-outs that look alike come from different tables or passages of the source.

Tests used:
[1] = Li et al. 2003, Li et al. 2004; cited from earlier work

pKa (NaOAc buffer, pH 4.602-8.322, UV absorbance at 235 nm or fluorescence emission vs pH)	fraction of antiAT-F protonated (pH 8.0)	SMILES	pKa [1]
–	–	Nc1nc([C@H]2C[C@H](O)[C@@H](CO)O2)c2ccccc2n1 [antiAT, 2-amino-4-(2′-deoxy-β-D-ribofuranosyl)quinazoline]	4.8
6.7	approximately 2%	Nc1cc([C@H]2C[C@H](O)[C@@H](CO)O2)c2cc(F)ccc2n1 [antiAT-F, 2-amino-6-fluoro-4-(2′-deoxy-β-D-ribofuranosyl)-quinoline]	–
–	–	Nc1cc([C@H]2C[C@H](O)[C@@H](CO)O2)c2ccccc2n1 [antiGC, 2-amino-4-(2′-deoxy-β-D-ribofuranosyl) quinoline]	7.2
